From ChEMBL document CHEMBL1151149, “Antineoplastic agents, 107. Isolation of acteoside and isoacteoside from Castilleja linariaefolia” (1990)
Converted amounts (≈) assume the structure as drawn.

System: P388
Test: Cytotoxicity against mouse P388 cells
Type: functional
Conditions: read-out: ED50 (the source's name)

| Compound | EC50 |
| --- | --- |
| C[C@@H]1O[C@@H](O[C@@H]2[C@@H](O)[C@H](OCCc3ccc(O)c(O)c3)O[C@H](CO)[C@H]2OC(=O)/C=C/c2ccc(O)c(O)c2)[C@H](O)[C@H](O)[C@H]1O [ACETOSIDE] | 2.6 µg/mL (≈ 4.16 µM) |
| C[C@@H]1O[C@@H](O[C@@H]2[C@@H](O)[C@H](OCCc3ccc(O)c(O)c3)O[C@H](COC(=O)/C=C/c3ccc(O)c(O)c3)[C@H]2O)[C@H](O)[C@H](O)[C@H]1O [ISOACTEOSIDE] | 10 µg/mL (≈ 16 µM) |
